Results from US8785457B2 (Cellzome Limited, priority 2009, dated 2014).

Experiments:
[1] = tested on: S6RP serine-240/244 phosphorylation; assay: In vitro Phospho-S6 cellular assay (pS6RP S240/244) in HEK293T/17 cells; assay type: cell-based; details: Homo sapiens, 2 hours, read-out: pS6 IC50
Procedure, shortened: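 Compounds were tested at eight concentrations on adhered HEK293T/17 cells for 2 h at 37 °C (2% FCS, 0.1% DMSO), at 80,000 cells/well for pAkt S473 and 40,000 for pS6RP S240/244. Lysates were captured on phospho-specific antibody MSD plates with Sulfo-Tag detection. Values came from nonlinear variable-slope regression.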

[2] = tested on: Akt serine-473 phosphorylation; assay: In vitro Phospho-Akt cellular assay (pAkt S473) in HEK293T/17 cells; assay type: cell-based; details: Homo sapiens, 2 hours
Source text: Activation of mTOR signaling results in phosphorylation of several downstream targets. In cells, mTOR exists in two different protein complexes. The mTOR Complex-1 (mTORC1) phosphorylates and activates S6 Kinase 1 (S6K1) and S6 Kinase 2 (S6K2) (also known as p70S6K) which then phosphorylate S6 Ribosomal Protein (S6RP) (also known as RPS6)3. S6RP is phosphorylated on serine 235, serine 236, serine 240 and serine 244 by both pS6K1 and pS6K2. The mTOR Complex-2 (mTORC2) phosphorylates AKT on serine 473 which activates the AKT signaling pathway.
The assay measures a test compound's inhibition of S6RP serine-240/244 phosphorylation and inhibition of Akt serine-473 phosphorylation in human embryonic kidney derived HEK293T/17 cells (ATCC CRL-11268).
The HEK293T/17 cell line is maintained in DMEM media (Invitrogen catalogue number 41965-039) supplemented with 10% FCS at 37° C. in a 5% CO2 humidified incubator.
Cells are seeded in 96-well plates at 40,000 cells/well (pS6RP S240/244 assay) or 80,000 cells/well (pAkt S473 assay) in 90 μl growth media (DMEM, 2% FCS). Plates are incubated for 1 hour in a humidified incubator to allow the cells to adhere. Cells are treated with 8 concentrations of test compounds or DMSO alone for controls (final DMSO concentration 0.1%) and incubated at 37° C. for 2 hours. Then 20 μl of 5× concentrated lysis buffer (750 mM NaCl, 100 mM Tris pH7.4, 5 mM ADTA, 5 mM EGTA, 5% Triton X-100) is added, plates are sealed and incubated for 15 minutes at 4° C. with gentle shaking. After cell lysis, 25 μl cell lysate is transferred to a MesoScale plate coated with an antibody to pS6RP Ser240/244 (MesoScale Discovery K150DGD-3) or an antibody to pAkt Ser 473 (MesoScale Discovery K151DGD-3). Plates have been blocked before by incubation with 150 μl MesoScale Discovery Blocking Solution-A for 1 hour at room temperature followed by washing with 150 μl 1× Tris wash buffer per well. After the transfer of the cell lysate to the MSD plate, the pS6RP (or pAkt) protein is captured on the coated antibody by incubation at room temperature for 1 hour with gentle shaking. After the capture step the plate is washed three times with 150 μl of 1× Tris wash buffer per well. Then 25 μl detection antibody conjugated with a Sulfo-Tag is added and incubated for 1 hour at room temperature with gentle shaking. Subsequently the antibody solution is removed and the plate is washed 3 times with 150 μl×Tris wash buffer per well and 150 μl Read buffer is added. The plates are analysed on a MSD 2400 Plate Reader (MesoScale Discovery). Data analysis is performed using nonlinear regression for a sigmoidal dose-response with a variable slope.

Work on `C[C@H]1COCCN1c1nc(-c2ccc(NC(=O)NC3CC3)cc2F)nc2c1CN(C(=O)N(C)C)C2` [Example 178, (S)-2-(4-(3-cyclopropylureido)-2-fluorophenyl)-N,N-dimethyl-4-(3-methylmorpholino)-5H-pyrrolo[3,4-d]pyrimidine-6(7H)-carboxamide] yielded an IC50 [1] of 163 nM and an IC50 [2] of 52 nM.

For `C[C@H]1COCCN1c1nc(-c2ccc(NC(=O)NC3CC3)cc2)nc2c1CCN(CC1CC1)C2` [Example 40, (S)-1-cyclopropyl-3-(4-(7-(cyclopropylmethyl)-4-(3-methylmorpholino)-5,6,7,8-tetrahydropyrido[3,4-d]pyrimidin-2-yl)phenyl)urea], the IC50 [1] was 70 nM and the IC50 [2] was 43 nM.

For `CC(C)N1Cc2nc(-c3ccc(NC(=O)NC4CC4)cc3F)nc(N3CCOC[C@@H]3C)c2C1` [Example 172, (S)-1-cyclopropyl-3-(3-fluoro-4-(6-isopropyl-4-(3-methylmorpholino)-6,7-dihydro-5H-pyrrolo[3,4-d]pyrimidin-2-yl)phenyl)urea], the IC50 [1] was 187 nM and the IC50 [2] was 101 nM.

With `CCNC(=O)Nc1ccc(-c2nc3c(c(N4CCOCC4)n2)CN(C(=O)OC)C3)c(F)c1` [Example 162, methyl 2-(4-(3-ethylureido)-2-fluorophenyl)-4-morpholino-5H-pyrrolo[3,4-d]pyrimidine-6(7H)-carboxylate] the IC50 [1] was 114 nM and the IC50 [2] was 85 nM.

In the case of `CCOC(=O)N1Cc2nc(-c3ccc(NC(=O)NC4CC4)cc3F)nc(N3CCOCC3)c2C1` [Example 156, Ethyl 2-(4-(3-cyclopropylureido)-2-fluorophenyl)-4-morpholino-5H-pyrrolo[3,4-d]pyrimidine-6(7H)-carboxylate], the IC50 [1] is reported as 135 nM and the IC50 [2] is reported as 76 nM.

Work on `C[C@H]1COCCN1c1nc(-c2ccc(NC(=O)NC3CC3)cc2F)nc2c1CCN(C(=O)N(C)C)C2` [Example 165, (S)-2-(4-(3-cyclopropylureido)-2-fluorophenyl)-N,N-dimethyl-4-(3-methylmorpholino)-5,6-dihydropyrido[3,4-d]pyrimidine-7(8H)-carboxamide] yielded an IC50 [1] of 45 nM and an IC50 [2] of 37 nM.

Work on `CCNC(=O)Nc1ccc(-c2nc3c(c(N4CCOC[C@@H]4C)n2)CN(C)C3)cc1` [Example 26, (S)-1-ethyl-3-(4-(6-methyl-4-(3-methylmorpholino)-6,7-dihydro-5H-pyrrolo[3,4-d]pyrimidin-2-yl)phenyl)urea] yielded an IC50 [1] of 196 nM and an IC50 [2] of 68 nM.

`CCNC(=O)Nc1ccc(-c2nc3c(c(N4CCOC[C@@H]4C)n2)CCN(C(=O)C2CC2)C3)cc1` [Example 56, (S)-1-(4-(7-(cyclopropanecarbonyl)-4-(3-methylmorpholino)-5,6,7,8-tetrahydropyrido[3,4-d]pyrimidin-2-yl)phenyl)-3-ethylurea] was tested, and the IC50 [1] was 32 nM and the IC50 [2] was 19 nM.

In the case of `COC(=O)N1Cc2nc(-c3ccc(NC(=O)NC4CC4)cc3F)nc(N3CCOC[C@@H]3C)c2C1` [Example 146, (S)-methyl 2-(4-(3-cyclopropylureido)-2-fluorophenyl)-4-(3-methylmorpholino)-5H-pyrrolo[3,4-d]pyrimidine-6(7H)-carboxylate], the IC50 [1] is reported as 96 nM and the IC50 [2] is reported as 41 nM.

For `CCNC(=O)Nc1ccc(-c2nc3c(c(N4CCOC[C@@H]4C)n2)CCN(C(=O)N(C)C)C3)c(F)c1` [Example 176, (S)-2-(4-(3-ethylureido)-2-fluorophenyl)-N,N-dimethyl-4-(3-methylmorpholino)-5,6-dihydropyrido[3,4-d]pyrimidine-7(8H)-carboxamide], the IC50 [1] was 76 nM and the IC50 [2] was 54 nM.

Compound `CC(C)N1CCc2c(nc(-c3ccc(NC(=O)NC4CC4)cc3)nc2N2CCOC[C@@H]2C)C1` [Example 43, (S)-1-cyclopropyl-3-(4-(7-isopropyl-4-(3-methylmorpholino)-5,6,7,8-tetrahydropyrido[3,4-d]pyrimidin-2-yl)phenyl)urea] has an IC50 [1] of 71 nM and an IC50 [2] of 35 nM.

`CCNC(=O)Nc1ccc(-c2nc3c(c(N4CCOC[C@@H]4C)n2)CCN(CC2CC2)C3)cc1` [Example 37, (S)-1-(4-(7-(cyclopropylmethyl)-4-(3-methylmorpholino)-5,6,7,8-tetrahydropyrido[3,4-d]pyrimidin-2-yl)phenyl)-3-ethylurea] gave an IC50 [1] of 86 nM and an IC50 [2] of 45 nM.

`CCNC(=O)Nc1ccc(-c2nc3c(c(N4CCOC[C@@H]4C)n2)CCN(C(=O)C(C)C)C3)cc1` [Example 57, (S)-1-ethyl-3-(4-(7-isobutyryl-4-(3-methylmorpholino)-5,6,7,8-tetrahydropyrido[3,4-d]pyrimidin-2-yl)phenyl)urea] showed an IC50 [1] of 32 nM and an IC50 [2] of 14 nM.

For `CCNC(=O)Nc1ccc(-c2nc3c(c(N4CCOCC4)n2)CN(C(=O)OCC)C3)c(F)c1` [Example 151, Ethyl 2-(4-(3-ethylureido)-2-fluorophenyl)-4-morpholino-5H-pyrrolo[3,4-d]pyrimidine-6(7H)-carboxylate], the IC50 [1] was 153 nM and the IC50 [2] was 107 nM.

`COC(=O)N1Cc2nc(-c3ccc(NC(=O)NC4CC4)cc3F)nc(N3CCOCC3)c2C1` [Example 173, Methyl 2-(4-(3-cyclopropylureido)-2-fluorophenyl)-4-morpholino-5H-pyrrolo[3,4-d]pyrimidine-6(7H)-carboxylate] showed an IC50 [1] of 172 nM and an IC50 [2] of 49 nM.

`CCNC(=O)Nc1ccc(-c2nc3c(c(N4CCOC[C@@H]4C)n2)CN(C(=O)OC)C3)c(F)c1` [Example 152, (S)-methyl 2-(4-(3-ethylureido)-2-fluorophenyl)-4-(3-methylmorpholino)-5H-pyrrolo[3,4-d]pyrimidine-6-(7H)-carboxylate] showed an IC50 [1] of 93 nM and an IC50 [2] of 49 nM.

With `CN1Cc2nc(-c3ccc(NC(=O)NC4CC4)cc3F)nc(N3CCOCC3)c2C1` [Example 159, 1-(Cyclopropyl)-3-(3-fluoro-4-(6-methyl-4-morpholino-6,7-dihydro-5H-pyrrolo[3,4-d]pyrimidin-2-yl)phenyl)urea] the IC50 [1] was 271 nM and the IC50 [2] was 314 nM.

For `COC(=O)N1Cc2nc(-c3ccc(NC(=O)NCCF)cc3F)nc(N3CCOCC3)c2C1` [Example 169, Methyl 2-(2-fluoro-4-(3-(2-fluoroethyl)ureido)phenyl)-4-morpholino-5H-pyrrolo[3,4-d]pyrimidine-6(7H)-carboxylate], the IC50 [1] was 143 nM.

`CCNC(=O)Nc1ccc(-c2nc3c(c(N4CCOC[C@@H]4C)n2)CN(C(C)=O)C3)cc1` [Example 18, (S)-1-(4-(6-acetyl-4-(3-methylmorpholino)-6,7-dihydro-5H-pyrrolo[3,4-d]pyrimidin-2-yl)phenyl)-3-ethylurea] was tested, and the IC50 [1] was 443 nM.

`CCOC(=O)N1Cc2nc(-c3ccc(NC(=O)NCCF)cc3F)nc(N3CCOCC3)c2C1` [Example 170, ethyl 2-(2-fluoro-4-(3-(2-fluoroethyl)ureido)phenyl)-4-morpholino-5H-pyrrolo[3,4-d]pyrimidine-6(7H)-carboxylate] was tested, and the IC50 [1] was 105 nM and the IC50 [2] was 54 nM.

`C[C@H]1COCCN1c1nc(-c2ccc(NC(=O)NC3CC3)cc2)nc2c1CNCC2` [Example 11, (S)-1-cyclopropyl-3-(4-(4-(3-methylmorpholino)-5,6,7,8-tetrahydropyrido[4,3-d]pyrimidin-2-yl)phenyl)urea] gave an IC50 [1] of 588 nM.

`C[C@H]1COCCN1c1nc(-c2ccc(NC(=O)NC3CC3)cc2)nc2c1CN(CC(C)(C)C)C2` [Example 25, (S)-1-cyclopropyl-3-(4-(4-(3-methylmorpholino)-6-neopentyl-6,7-dihydro-5H-pyrrolo[3,4-d]pyrimidin-2-yl)phenyl)urea] gave an IC50 [1] of 98 nM.

Work on `C[C@H]1COCCN1c1nc(-c2ccc(NC(=O)Nc3ccc(F)cc3)cc2)nc2c1CN(C)C2` [Example 52, (S)-1-(4-fluorophenyl)-3-(4-(6-methyl-4-(3-methylmorpholino)-6,7-dihydro-5H-pyrrolo[3,4-d]pyrimidin-2-yl)phenyl)urea] yielded an IC50 [1] of 90 nM.

In the case of `CCNC(=O)Nc1ccc(-c2nc3c(c(N4CCOC[C@@H]4C)n2)CCNC3)c(F)c1` [Example 164, (S)-1-ethyl-3-(3-fluoro-4-(4-(3-methylmorpholino)-5,6,7,8-tetrahydropyrido[3,4-d]pyrimidin-2-yl)phenyl)urea], the IC50 [1] is reported as 510 nM.
